Source: ChEMBL document CHEMBL4052755, “Phosphonodifluoropyruvate is a mechanism-based inhibitor of phosphonopyruvate decarboxylase from Bacteroides fragilis” (Bioorg Med Chem, 2017)
pKi: −log10 of the molar value. Activity calls are given as the source filed them. The calls are words filed in the database; no cut-off is given here.

Columns and labels:
Bacteroides fragilis [1] = experiment: Irreversible inhibition of recombinant Bacteroides fragilis phosphonopyruvate decarboxylase at 10 to 50 uM using phosphonopyruvate as substrate
Bacteroides fragilis [2] = experiment: Irreversible inhibition of recombinant Bacteroides fragilis phosphonopyruvate decarboxylase at 10 uM using phosphonopyruvate as substrate after overnight dialysis
Pseudomonas putida = experiment: Inhibition of recombinant Pseudomonas putida C-terminal His-tagged phosphonatase
Saccharomyces cerevisiae = experiment: Inhibition of yeast alcohol dehydrogenase
Bacteroides fragilis [3] = experiment: Inhibition of recombinant Bacteroides fragilis phosphonopyruvate decarboxylase assessed as fluoride ion release up to 75 uM incubated for 30 mins by TISAB 2 solution based ion-selective electrode assay
Bacteroides fragilis [4] = experiment: Inhibition of recombinant Bacteroides fragilis phosphonopyruvate decarboxylase at 35 uM incubated for 3 mins by CD spectropolarimetric analysis
Bacteroides fragilis [5] = experiment: Inhibition of recombinant Bacteroides fragilis phosphonopyruvate decarboxylase at 35 uM incubated for 3 mins by UV-Vis spectrophotometric analysis
[6] = Binding affinity to recombinant Bacteroides fragilis phosphonopyruvate decarboxylase using phosphonopyruvate as substrate

O=C(O)C(O)(O)C(F)(F)P(=O)(O)O
TDI (Bacteroides fragilis [1]): Active | inhibition (Bacteroides fragilis [2]): Active | inhibition (Pseudomonas putida): inactive | inhibition (Saccharomyces cerevisiae): inactive | inhibition (Bacteroides fragilis [3]): Active | inhibition (Bacteroides fragilis [4]): Active | inhibition (Bacteroides fragilis [5]): Active | pKi [6]: 6.22
